Measurements taken from patent publication US20130225629A1, “TARGETING PI3K/MTOR SIGNALLING AND NEUTROPHIL RECRUITMENT FOR TREATMENT OF ENTERITIS” (THE UNIVERSITY OF NORTH CAROLINA AT CHAPEL HILL, priority 2012, published 2013).

Assays:
[1] = system: p70S6 kinase (T389); assay: Western blot of colonic p70S6K phosphorylation in C. jejuni infected mice; format: in vivo; conditions: AS252424 10 mg/kg i.p. daily, 6 days
Description: Whole tissues were lysed in Laemmli buffer and 20 μg of protein was separated by SDS-PAGE, transferred to nitrocellulose membranes and protein detected using enhanced chemiluminescence reaction (ECL) as described previously. (Lippert et al., 2009). Primary antibodies used were phospho-p70S6K (T389) and p70S6K (Cell Signaling, Danvers, Mass., United States of America), EGFP (Sigma, St. Louis, Mo., United States of America), LC3 I/II (MBL) and Actin.
A segment of the distal colon was lysed in 300 μl Laemmli buffer, homogenized and heated at 95° C. for 5 min. 20 μg of total protein were separated by SDS-PAGE and transferred to nitrocellulose membranes. Targeted protein was detected using enhanced chemiluminescence reaction (ECL) as described previously (Muhlbauer et al., 2008). Primary antibodies used were phosphor-AKT (S473), phosphor-p70S6K (T389), total AKT (all from Cell Signaling, Danvers, Mass., United States of America) and EGFP (Sigma, St. Louis, Mo., United States of America). The density of Western blot bands was quantified using ImageJ and data were normalized to total AKT control.

[2] = system: II1β mRNA; assay: Real-time RT-PCR of colonic II1β mRNA; format: in vivo, mice; conditions: AS252424 vs vehicle treated infected mice
Description: (§1) Total RNA from colonic tissue was extracted using TRIzol® kit (Invitrogen, Carlsbad, Calif., United States of America). Complementary DNA was prepared using M-MLV (Invitrogen). Messenger RNA levels of proinflammatory genes were determined using SYBR® Green PCR Master Mix (Applied Biosystems, Carlsbad, Calif., United States of America) on an ABI 7900HT Fast Real-Time PCR System and normalized to Gapdh. The polymerase chain reactions were performed according to the manufacturer's recommendation. The following gene primers were used: Gapdh_forward: 5′-[…]-3′ (SEQ ID NO: 2), Gapdh_reverse: 5′-[…]-3′ (SEQ ID NO: 3), II-1_forward: 5′-[…]-3′ (SEQ ID NO: 4), II-1_reverse: 5′-[…]-3′ (SEQ ID NO: 5), Cxcl2_forward: 5′-[…]-3′ (SEQ ID NO: 6), Cxcl2_reverse: 5′-[…]-3′ (SEQ ID NO: 7), II-17a_forward: 5′-[…]-3′ (SEQ ID NO: 8), II-17a_reverse: 5′-[…]-3′ (SEQ ID NO: 9), II12p40_forward: […] (SEQ ID NO: 10), II12p40_reverse: […] (SEQ ID NO: 11), Tnf forward: […] (SEQ ID NO: 12), Tnf reverse: […] (SEQ ID NO: 13).
(§2) Total RNA from intestinal tissues was extracted using TRIzol® kit (Invitrogen, Carlsbad, Calif., United States of America) following the manufacture's guide. cDNA was reverse-transcribed using M-MLV (Invitrogen). Proinflammatory 111β, Cxcl2, II17a and Tnfα mRNA expression levels were measured using SYBR® Green PCR Master mix (Applied Biosystems, Carlsbad, Calif., United States of America) on an ABI 7900HT Fast Real-Time PCR System and normalized to Gapdh. The PCR primers used were reported previously. (Sun et al., 2012). The PCR reactions were performed for 40 cycles according to the manufacturer's recommendation, and RNA fold changes were calculated using the ΔΔct method.

[3] = system: C. jejuni; format: in vivo, mice
Description: All animal protocols were approved by the Institutional Animal Care and Use Committee of the University of North Carolina at Chapel Hill (Chapel Hill, N.C., United States of America). Germ-free 8 to 12 week old II10^−/−; NF-κBEGFP (129/SvEv; C57BL/6 mixed background) mice were transferred from germ-free isolators and immediately gavaged with 10^9 C. jejuni cfu/mouse (strain 81-176 (Korlath et al., 1985)). Mice were then housed under Specific Pathogen-Free (SPF) conditions and sacrificed at 5 or 12 days. Germ-free II10^−/−; NF-κB^EGFP mice were also gavaged with 10^7 Salmonella typhimurium (S. typhimurium strain CA32) cfu/mouse for 2 days or 10^7 Escherichia coli (E. coli strain NC 101) cfu/mouse for 12 days. Conventionally-derived II10^−/−; NF-κB^EGFP mice were put on an antibiotic cocktail (streptomycin 2 g/L, gentamycin 0.5 g/L, bacteriocin 1 g/L and ciprofloxacin 0.125 g/L) in water for 7 days and antibiotics withdrawn 24 hours prior to infection. The mice were then gavaged with 10^9 C. jejuni cfu/mouse for 14 days. To inhibit mTOR signaling, mice were injected daily intraperitoneally (i.p.) with rapamycin (1.5 mg/kg) (Fisher Scientific, Hampton, N.H., United States of America). At the end of the experiment, mice were euthanized using CO2 intoxication. Colon, mesenteric lymph nodes (MLN) and spleen were collected for further processing RNA, protein or C. jejuni culture on Campylobacter selective blood plates (Remel, Thermo Scientific, Hampton, N.H., United States of America) for 48 h at 37° C. using the GasPak system (Becton Dickinson, Franklin Lakes, N.J., United States of America). […] Colons were fixed in 10% buffered formalin (Fisher Scientific, Hampton, N.H., United States of America) overnight, paraffin-embedded, sectioned, and stained with H&E for histological evaluation. Images were acquired using a DP71 camera and DP Controller 3.1.1.276 (Olympus, Center Valley, Pa., United States of America). Intestinal inflammation was scored by evaluating the degree of lamina propria immune cell infiltration, goblet cell depletion, architectural distortion, as well as crypt hyperplasia, ulceration, and abscesses using a score from 0-4. (Lippert et al., 2009). Cecal and colonic inflammation induced by S. typhimurium was evaluated using a score from 0-13 as described. (Hapfelmeier et al., 2005).
MLN and spleen were aseptically resected. Colon tissue was opened, resected and washed three times in sterile PBS. […] C. jejuni colonies were counted and data presented as colony forming unit (cfu)/g tissue.

[4] = system: II-17a mRNA; assay: Real-time RT-PCR of colonic II-17a mRNA; format: in vivo, mice; conditions: AS252424 vs vehicle treated infected mice
Description: as §1, §2

In the case of `O=C1NC(=O)/C(=C/c2ccc(-c3ccc(F)cc3O)o2)S1` [AS252424], the “attenuation of p70S6K phosphorylation (T389) in colonic extracts” value [1] is reported as 34%, the “block of C. jejuni-induced I11β mRNA accumulation” value [2] is reported as 77% and the “levels of viable C. jejuni in the spleen” value ([3]; AS252424 vs infected vehicle-treated mice) is reported as “strongly reduced”. For the same molecule, the “decrease of viable C. jejuni in MLN” value ([3]; mouse, in vivo) was 90%, the “decrease of viable C. jejuni in colon” value ([3]; mouse, in vivo) was 97% and the “block of C. jejuni-induced II17a mRNA accumulation” value [4] was 72%.
